Data as given in US20070254891A1, “Crystalline forms of 4-(2-fluorophenyl)-6-methyl-2-(piperazin-1-yl)thieno[2,3-d]pyrimidine” (Dynogen Pharmaceuticals, Inc., priority 2006, published 2007).

Legend:
Assay type in all cases: physicochemical
[1] = Aqueous solubility with pH measurement; details: water, 25° C., 24 hours; hydrochloride
Protocol: Each sample was suspended in 0.25 ml of solvent (water) in an amount effective to produce a maximum final concentration of greater than or equal to about 10 mg/ml of the parent free form of the compound (i.e., adding excess sample to account for the weight of the salt). […] The filtrate was then diluted down 101 times.

[2] = Variable temperature XRPD (VT-XRPD); details: 25° C. to 245° C., then cooled to 30° C.
Protocol: Samples run under ambient conditions were prepared as flat plate specimens using powder without grinding unless otherwise stated. Approximately 1-2 mg of the sample was lightly pressed on a glass slide to obtain a flat surface. Samples run under non-ambient conditions (VT-XRPD) were mounted on a silicon wafer with heat conducting compound. The sample was then heated to the appropriate temperature at about 20° C./minute and subsequently held isothermally for about 1 minute before data collection was initiated.
Three samples were studied using variable temperature XRPD (VT-XRPD): Form I as received, substantially pure Form I as prepared in Example 3, and substantially pure Form II as prepared in Example 3. VT-XRPD studies were initially carried out on substantially pure Form I as prepared in Example 3 with measurements at 25° C., 50° C., 80° C., 150° C., 220° C., 225° C., 250° C. and cooling to 29° C. Prior to measurement of the last XRPD pattern, the material was crushed due to the growth of large crystals. An overlay of the XRPD patterns can be found in FIG. 4A.
An experiment was also carried out on Form I as received, with measurements at 26° C., 50° C., 150° C., 200° C., 210° C., 220° C., 230° C. and cooling to 27° C. An overlay of the XRPD patterns can be found in FIG. 4B. […] (see peak at ˜14.7 2θ). […]

[3] = Accelerated light stability study (Atlas Suntest CPS+ light box)
Protocol: (§1) Purity analysis was performed on an Agilent HP1100 system equipped with a diode array detector and using Chemstation V9 software. Gradient, Reverse Phase methods (duration approximately 40 minutes) were used in a HPLC1 system. A Thermo-Electron Corporation HyPurity C18 5 um 150×4.6 mm column was used at 25° C. Test samples were made-up of 0.2 mg/ml of the compound in acetonitrile:water (1:1 v/v). 10 μl of sample was injected into the column. The flow rate through the column was 1 ml/min and the detection wavelength, bandwidth was 254,8 nm. Phase A was 0.1% phosphoric acid in water and Phase B was 0.1% phosphoric acid in acetonitrile. The mobile phase timetable is shown below in Table 2.
Accelerated Light stability experiments were conducted using an Atlas Suntest CPS+light box. The light exposure was set to 550 W/m^2 and the run time was set to 168 hours (1 week). The chamber temperature and black standard temperature (which indicates how hot the test samples will become) were set to 25° C. The actual temperature in the sample chamber was 40° C.
Form I and II were assessed using an Atlas Suntest CPS+ light box to determine the effect of their exposure to light over a period of 168 hours (1 week). The light exposure was set to 550 W/M^2. Samples were weighed into either open weighing boats covered by pyrex glass beakers, glass vials with open tops (no lid), or glass vials covered in Aluminum foil. In all instances, the material was spread out into an even, thin layer.

[4] = Storage at 40° C./75% RH under ambient light (XRPD, HPLC purity, colour)
Protocol: as §1
Form I was characterized by pKa, LogP, LogPion and LogD determination and prediction, XRPD before and after storage at 40° C./75% RH for 4 weeks, PLM, DSC and TGA, ^1HNMR, solubility in water with pH measurement, HPLC purity before and after storage at 40° C./75% RH for 4 weeks, water content, GVS with XRPD and purity analysis after measurement, and VT-XRPD.
Form II has been characterized using XRPD before and after storage at 40° C./75% RH for 3 weeks, PLM, DSC and TGA, Solubility in water with pH measurement, HPLC purity, Water content, GVS with XRPD analysis after measurement, and VT-XRPD.

[5] = 10 week stability study at 40° C./75% RH and 60° C./75% RH, light and dark
Protocol: as §1
Samples of Form I and II were tested at 40° C./75% RH and 60° C./75% RH in both light and dark conditions for up to 10 weeks. As the samples were located in temperature/humidity control chambers, the exposure to light was limited to normal laboratory light conditions with artificial light and some winter daylight through the windows.
Approximately 100 mg of each sample was weighed into plastic weighing boats and spread out to form an even thin layer for each of the temperature/humidity/light conditions, as shown in Table 6. The dark samples were protected from exposure to light by wrapping them in aluminum foil. The foil was pierced to allow exposure to humidity.
Time points chosen for HPLC analysis during the stability study were T=0, 1, 2, 5 and 10 weeks. At 10 weeks, the samples were analyzed using XRPD, DSC and polarized light microscopy.

Structure (SMILES): Cc1cc2c(-c3ccccc3F)nc(N3CCNCC3)nc2s1.Cl [Form II, 4-(2-fluorophenyl)-6-methyl-2-(piperazin-1-yl)thieno[2,3-d]pyrimidine hydrochloride]
- Aqueous solubility (free base equivalent) [1]: 1600 µg/mL
- pH of the solubility sample [1]: 6.39
- Form on heating (VT-XRPD) [2]: remained as Form II throughout the experiment
- Rate of degradation relative to Form I ([3]; 1 week at elevated light levels): about half the rate of Form I
- Purity after 1 week light exposure ([3]; 20 ml glass vial covered in Al foil with loose lid (control)): 99.9
- Purity after 1 week light exposure ([3]; 20 ml glass vial, 550 W/m^2, 168 hours, hydrochloride): 90.7
- HPLC purity after accelerated light study ([3]; one week, FIGS. 6A/6B (open weighing boats), hydrochloride): 88.3%
- Purity after 1 week light exposure ([3]; open weighing boat, 550 W/m^2, 168 hours, hydrochloride): 88.3
- Colour of material surface after storage ([4]; 3 weeks at 40° C./75% RH, ambient light): had not changed color
- XRPD after storage ([4]; 40° C./75% RH for 4 days, samples from acetone and acetonitrile): remained unchanged
- XRPD pattern after storage ([4]; 40° C./75% RH for three weeks): unchanged
- HPLC purity after storage ([4]; three weeks at 40° C./75% RH): 100%
- Purity % ([5]; 40° C./75% RH, Dark, 1 week): 99.9%
- Purity % ([5]; 40° C./75% RH, Dark, 2 weeks): 100%
- Purity % ([5]; 40° C./75% RH, Dark, 5 weeks): 100%
- Purity % ([5]; 40° C./75% RH, Dark, 10 weeks, hydrochloride): 100%
- Purity % ([5]; 40° C./75% RH, Light, 1 week): 99.9%
- Purity % ([5]; 40° C./75% RH, Light, 2 weeks): 100%
- Purity % ([5]; 40° C./75% RH, Light, 5 weeks, hydrochloride): 99.9%
- Purity % ([5]; 40° C./75% RH, Light, 10 weeks, hydrochloride): 99.9%
- Purity % ([5]; 60° C./75% RH, Dark, 1 week): 99.9%
- Purity % ([5]; 60° C./75% RH, Dark, 2 weeks, hydrochloride): 100%
- Purity % ([5]; 60° C./75% RH, Dark, 5 weeks): 100%
- Purity % ([5]; 60° C./75% RH, Dark, 10 weeks, hydrochloride): 99.9%
- Purity % ([5]; 60° C./75% RH, Light, 1 week): 99.8%
- Purity % ([5]; 60° C./75% RH, Light, 2 weeks, hydrochloride): 99.9%
- Purity % ([5]; 60° C./75% RH, Light, 5 weeks, hydrochloride): 99.8%
- Purity % ([5]; 60° C./75% RH, Light, 10 weeks, hydrochloride): 99.7%
- Purity % ([5]; time point 0 weeks, hydrochloride): 99.9%
- Stability as indicated by the HPLC data ([5]; up to 10 weeks, 40° C./75% RH and 60° C./75% RH): stable to ambient light levels as well as elevated temperature and humidity
